One assay addresses T1, KRAS (G12D) (Homo sapiens, UniProt P01116, G12D).
T1 construct: in-cell western with KRAS G12D antibody after 24 h
Nature of the assay: KRAS (G12D) cellular degradation assay in AsPC-1 cells. Format: cell-based. The conditions noted are these: 24 hours, antibody fluorescence (Odyssey CLX), DC50 half-maximal degradation concentration. Summed up: (§1)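 AsPC-1 cells were seeded at 22,000/well for degradation and 3,500/well for proliferation. Compounds in 1:3 dilutions ([…] to 1.5 nM final) ran 24 h for degradation, read by in-cell immunofluorescence of KRAS G12D normalised to β-actin, and 6 days for proliferation (CellTiter Glo luminescence). DC50/IC50 came from dose-response fits.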

Another assay concerns AsPC-1 cells. Nature of the assay: AsPC-1 cell proliferation assay (CellTiter Glo). Format: cell-based. As to conditions: Homo sapiens, ASPC1, 144 h, 6 days. Summed up: as §1

Structures are written as SMILES.

T1 sequence (P01116 1-188 isoform P01116-2 G12D): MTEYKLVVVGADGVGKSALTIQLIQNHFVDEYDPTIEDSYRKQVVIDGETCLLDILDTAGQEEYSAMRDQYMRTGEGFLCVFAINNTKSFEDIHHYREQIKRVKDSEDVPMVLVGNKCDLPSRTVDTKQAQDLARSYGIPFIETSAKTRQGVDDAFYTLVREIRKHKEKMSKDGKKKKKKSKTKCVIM

Consider `CCn1nccc1-c1ccc([C@H](CC(=O)NC)NC(=O)[C@@H]2C[C@@H](O)CN2C(=O)[C@H](C(C)C)n2cc(-c3ccc(COc4c(-c5c(C)c(F)cc6[nH]ncc56)c(C5CC5)cc5c(N6C[C@@H]7C[C@H]6CN7)nc(OC[C@H](C)OC)nc45)cc3)nn2)cc1` [Example 55, (2S,4R)-1-((2S)-2-(4-(4-(((4-((1S,4S)-2,5-diazabicyclo[2.2.1]heptan-2-yl)-6-cyclopropyl-7-(6-fluoro-5-methyl-1H-indazol-4-yl)-2-((S)-2-methoxypropoxy)quinazolin-8-yl)oxy)methyl)phenyl)-1H-1,2,3-triazol-1-yl)-3-methylbutanoyl)-N—((S)-1-(4-(1-ethyl-1H-pyrazol-5-yl)phenyl)-3-(methylamino)-3-oxopropyl)-4-hydroxypyrrolidine-2-carboxamide], for which, on KRAS (G12D), the DC50 was below 10 nM. This compound also displayed an IC50 in the assay with AsPC-1 cells below 10 nM.

Compound `CCn1nccc1-c1ccc([C@H](CO)NC(=O)[C@@H]2C[C@@H](O)CN2C(=O)[C@H](C(C)C)n2cc(-c3ccc(COc4c(-c5c(C)c(F)cc6[nH]ncc56)c(C5CC5)cc5c(N6C[C@@H]7C[C@H]6CN7)nc(O[C@H]6CO[C@H]7OCC[C@H]76)nc45)cc3)nn2)cc1` [Example 56, (2S,4R)-1-((2S)-2-(4-(4-(((4-((1S,4S)-2,5-diazabicyclo[2.2.1]heptan-2-yl)-6-cyclopropyl-7-(6-fluoro-5-methyl-1H-indazol-4-yl)-2-(((3R,3aS,6aR)-hexahydrofuro[2,3-b]furan-3-yl)oxy)quinazolin-8-yl)oxy)methyl)phenyl)-1H-1,2,3-triazol-1-yl)-3-methylbutanoyl)-N—((R)-1-(4-(1-ethyl-1H-pyrazol-5-yl)phenyl)-2-hydroxyethyl)-4-hydroxypyrrolidine-2-carboxamide] displayed a DC50 on KRAS (G12D) below 10 nM. The IC50 with AsPC-1 cells was below 10 nM.

As for `CCn1nccc1-c1ccc([C@H](CO)NC(=O)[C@@H]2C[C@@H](O)CN2C(=O)[C@H](C(C)C)n2cc(-c3ccc(COc4c(-c5c(C)c(F)c(F)c6[nH]ncc56)c(C5CC5)cc5c(N6C[C@@H]7C[C@H]6CN7)nc(OC[C@H](C)OC)nc45)cc3)nn2)cc1` [Example 57, (2S,4R)-1-((2S)-2-(4-(4-(((4-((1S,4S)-2,5-diazabicyclo[2.2.1]heptan-2-yl)-6-cyclopropyl-7-(6,7-difluoro-5-methyl-1H-indazol-4-yl)-2-((S)-2-methoxypropoxy)quinazolin-8-yl)oxy)methyl)phenyl)-1H-1,2,3-triazol-1-yl)-3-methylbutanoyl)-N—((R)-1-(4-(1-ethyl-1H-pyrazol-5-yl)phenyl)-2-hydroxyethyl)-4-hydroxypyrrolidine-2-carboxamide], on KRAS (G12D), the DC50 was below 10 nM. The IC50 in the assay on AsPC-1 cells was below 10 nM.

The compound `CCn1nccc1-c1ccc([C@H](CO)NC(=O)[C@@H]2C[C@@H](O)CN2C(=O)[C@H](C(C)C)n2cc(-c3ccc(COc4c(-c5c(C)c(F)cc6[nH]ncc56)c(C5CC5)cc5c(N6C[C@@H]7C[C@H]6CN7)nc(OC(COC)C(F)(F)F)nc45)cc3)nn2)cc1` (stereo partly drawn) [Example 58, (2S,4R)-1-((2S)-2-(4-(4-(((4-((1S,4S)-2,5-diazabicyclo[2.2.1]heptan-2-yl)-6-cyclopropyl-7-(6-fluoro-5-methyl-1H-indazol-4-yl)-2-((1,1,1-trifluoro-3-methoxypropan-2-yl)oxy)quinazolin-8-yl)oxy)methyl)phenyl)-1H-1,2,3-triazol-1-yl)-3-methylbutanoyl)-N—((R)-1-(4-(1-ethyl-1H-pyrazol-5-yl)phenyl)-2-hydroxyethyl)-4-hydroxypyrrolidine-2-carboxamide] returned a DC50 on KRAS (G12D) below 10 nM. The same compound returned an IC50 in the assay on AsPC-1 cells below 10 nM.

`Cc1ncsc1C#C[C@H](CO)NC(=O)[C@@H]1C[C@@H](O)CN1C(=O)[C@H](C(C)C)n1cc(-c2ccc(COc3c(-c4c(C)c(F)cc5[nH]ncc45)c(C4CC4)cc4c(N5C[C@@H]6C[C@H]5CN6)nc(OC5CCOCC5)nc34)cc2)nn1` [Example 59, (2S,4R)-1-((2S)-2-(4-(4-(((4-((1S,4S)-2,5-diazabicyclo[2.2.1]heptan-2-yl)-6-cyclopropyl-7-(6-fluoro-5-methyl-1H-indazol-4-yl)-2-((tetrahydro-2H-pyran-4-yl)oxy)quinazolin-8-yl)oxy)methyl)phenyl)-1H-1,2,3-triazol-1-yl)-3-methylbutanoyl)-4-hydroxy-N—((R)-1-hydroxy-4-(4-methylthiazol-5-yl)but-3-yn-2-yl)pyrrolidine-2-carboxamide] yielded a DC50 at KRAS (G12D) below 10 nM. The IC50 in the assay on AsPC-1 cells was below 10 nM.

For `CO[C@@H](C)COc1nc(N2C[C@@H]3C[C@H]2CN3)c2cc(C3CC3)c(-c3c(C)c(F)cc4[nH]ncc34)c(OCc3ccc(-c4cn([C@H](C(=O)N5C[C@H](O)C[C@H]5C(=O)N[C@H](C#Cc5cccc(F)c5F)CO)C(C)C)nn4)cc3)c2n1` [Example 60, (2S,4R)-1-((2S)-2-(4-(4-(((4-((1S,4S)-2,5-diazabicyclo[2.2.1]heptan-2-yl)-6-cyclopropyl-7-(6-fluoro-5-methyl-1H-indazol-4-yl)-2-((S)-2-methoxypropoxy)quinazolin-8-yl)oxy)methyl)phenyl)-1H-1,2,3-triazol-1-yl)-3-methylbutanoyl)-N—((R)-4-(2,3-difluorophenyl)-1-hydroxybut-3-yn-2-yl)-4-hydroxypyrrolidine-2-carboxamide], on KRAS (G12D), the DC50 is below 10 nM. This compound also came in with an IC50 in the assay on AsPC-1 cells below 10 nM.

As for `CCn1nccc1-c1ccc([C@H](CO)NC(=O)[C@@H]2C[C@@H](O)CN2C(=O)[C@H](C(C)C)n2cc(-c3ccc(COc4c(-c5c(C)c(F)cc6[nH]ncc56)c(C5CC5)cc5c(N6C7CNCC6COC7)nc(OC[C@H](C)OC)nc45)cc3)nn2)cc1` [Example 61, (2S,4R)-1-((2S)-2-(4-(4-(((4-(3-oxa-7,9-diazabicyclo[3.3.1]nonan-9-yl)-6-cyclopropyl-7-(6-fluoro-5-methyl-1H-indazol-4-yl)-2-((S)-2-methoxypropoxy)quinazolin-8-yl)oxy)methyl)phenyl)-1H-1,2,3-triazol-1-yl)-3-methylbutanoyl)-N—((R)-1-(4-(1-ethyl-1H-pyrazol-5-yl)phenyl)-2-hydroxyethyl)-4-hydroxypyrrolidine-2-carboxamide], the 50% degradation concentration (DC50) at KRAS (G12D) was in the range of 10 to 100 nM. In addition, in the assay on AsPC-1 cells, the IC50 lay in the range of 10 to 100 nM.

Turning to `CCn1nccc1-c1ccc([C@H](CO)NC(=O)[C@@H]2C[C@@H](O)CN2C(=O)[C@H](C(C)C)n2cc(-c3ccc(COc4c(-c5c(C)c(F)cc6[nH]ncc56)c(C5CC5)cc5c(N6C[C@@H]7C[C@H]6CN7)nc(OCC6(CC(F)F)CC6)nc45)cc3)nn2)cc1` [Example 62, (2S,4R)-1-((2S)-2-(4-(4-(((4-((1S,4S)-2,5-diazabicyclo[2.2.1]heptan-2-yl)-6-cyclopropyl-2-((1-(2,2-difluoroethyl)cyclopropyl)methoxy)-7-(6-fluoro-5-methyl-1H-indazol-4-yl)quinazolin-8-yl)oxy)methyl)phenyl)-1H-1,2,3-triazol-1-yl)-3-methylbutanoyl)-N—((R)-1-(4-(1-ethyl-1H-pyrazol-5-yl)phenyl)-2-hydroxyethyl)-4-hydroxypyrrolidine-2-carboxamide], the DC50 at KRAS (G12D) was below 10 nM. In the assay with AsPC-1 cells, this compound registered an IC50 below 10 nM.

On to `Cc1ncsc1-c1ccc([C@H](CO)NC(=O)[C@@H]2C[C@@H](O)CN2C(=O)[C@H](C(C)C)n2cc(-c3ccc(COc4c(-c5c(C)c(F)cc6[nH]ncc56)c(C5CC5)cc5c(N6C[C@@H]7C[C@H]6CN7)nc(OC6CCC7(CC6)COC7)nc45)cc3)nn2)cc1` [Example 63, (2S,4R)-1-((2S)-2-(4-(4-(((2-((2-oxaspiro[3.5]nonan-7-yl)oxy)-4-((1S,4S)-2,5-diazabicyclo[2.2.1]heptan-2-yl)-6-cyclopropyl-7-(6-fluoro-5-methyl-1H-indazol-4-yl)quinazolin-8-yl)oxy)methyl)phenyl)-1H-1,2,3-triazol-1-yl)-3-methylbutanoyl)-4-hydroxy-N—((R)-2-hydroxy-1-(4-(4-methylthiazol-5-yl)phenyl)ethyl)pyrrolidine-2-carboxamide], for which, at KRAS (G12D), the DC50 was below 10 nM. In addition, the IC50 with AsPC-1 cells was below 10 nM.

At KRAS (G12D), `CO[C@@H](C)COc1nc(N2C[C@@H]3C[C@H]2CN3)c2cc(C3CC3)c(-c3c(C)c(F)cc4[nH]ncc34)c(OCc3ccc(-c4cn([C@H](C(=O)N5C[C@H](O)C[C@H]5C(=O)N[C@H](C#Cc5ccccc5Cl)CO)C(C)C)nn4)cc3)c2n1` [Example 64, (2S,4R)-1-((2S)-2-(4-(4-(((4-((1S,4S)-2,5-diazabicyclo[2.2.1]heptan-2-yl)-6-cyclopropyl-7-(6-fluoro-5-methyl-1H-indazol-4-yl)-2-((S)-2-methoxypropoxy)quinazolin-8-yl)oxy)methyl)phenyl)-1H-1,2,3-triazol-1-yl)-3-methylbutanoyl)-N—((R)-4-(2-chlorophenyl)-1-hydroxybut-3-yn-2-yl)-4-hydroxypyrrolidine-2-carboxamide] had a DC50 of 10 to 100 nM. Further, the IC50 in the assay with AsPC-1 cells is 10 to 100 nM.

For the compound `CCn1nccc1-c1ccc([C@H](CO)NC(=O)[C@@H]2C[C@@H](O)CN2C(=O)[C@H](C(C)C)n2cc(-c3ccc(COc4c(-c5c(C)c(F)cc6[nH]ncc56)c(C5CC5)cc5c(N6C[C@@H]7C[C@H]6CN7)nc(OCC6(C(F)F)CCOCC6)nc45)cc3)nn2)cc1` [Example 65, (2S,4R)-1-((2S)-2-(4-(4-(((4-((1S,4S)-2,5-diazabicyclo[2.2.1]heptan-2-yl)-6-cyclopropyl-2-((4-(difluoromethyl)tetrahydro-2H-pyran-4-yl)methoxy)-7-(6-fluoro-5-methyl-1H-indazol-4-yl)quinazolin-8-yl)oxy)methyl)phenyl)-1H-1,2,3-triazol-1-yl)-3-methylbutanoyl)-N—((R)-1-(4-(1-ethyl-1H-pyrazol-5-yl)phenyl)-2-hydroxyethyl)-4-hydroxypyrrolidine-2-carboxamide], on KRAS (G12D), the DC50 is below 10 nM. In the assay with AsPC-1 cells, this compound displayed an IC50 below 10 nM.

A word on the DC50: it is the midpoint of the concentration-degradation curve. Usually IC50 stands for the concentration needed to halve the response being measured.
